In patent publication US9340551B2, “Inhibitors of bacterial type III secretion system” (MICROBIOTIX, INC., priority 2011, dated 2016):
Like-named read-outs stand apart in the source and are kept apart here.

Key:
[1] = system: T3SS-mediated secretion of ExoS′-βLA fusion protein, P. aeruginosa strain MDM973; experiment: ExoS′-βLA effector-β-lactamase secretion assay (nitrocefin cleavage); settings: for IC50: Pseudomonas aeruginosa; for IC50 in the ExoS′βLA assay versus reference inhibitor MBX-1641, in words: FIG. 2; for inhibition of ExoS′-βLA secretion, in words: FIG. 4, concentration-dependence; for performance in T3SS-mediated secretion relative to MBX-1641, in words: α-propyl and α-isopropyl analogs; for Secretion, % @50 μM: Table 4
[2] = system: HeLa cells; experiment: Mammalian cytotoxicity (MTS conversion, serum-free medium); format: cell-based, human; settings: Table 4; average of 1-20 determinations; read-out: Ave. CC50
[3] = as above; format: cell-based, human; settings: human, HeLa cells
[4] = system: T3SS-mediated translocation (ExoU intoxication of CHO cells); experiment: Inhibition of P. aeruginosa ExoU-dependent CHO cell killing (LDH release); settings: Pseudomonas aeruginosa
Protocol: Rescue of CHO cells from T3SS-mediated cytotoxicity of translocated effector protein ExoU was measured using a lactate dehydrogenase (LDH) release assay as previously reported (Lee, et al., 2005, Infect. Immun., 73:1695-705) except that infection with P. aeruginosa was carried out for 2 hr in the absence of gentamicin. Percent cytotoxicity (% LDH release) was calculated relative to that of the uninfected control, which was set at 0% LDH release, and that of cells infected with P. aeruginosa unprotected by test compound (100% LDH release). LDH released from unprotected, infected cells reached at least 80% of the value obtained from complete lysis with 1% Triton X-100 in the 2 hr timeframe of this experiment.

[5] = read-out: Ave. Translocation IC50
[6] = Table 4, average of 1-20 determinations, read-out: Ave. CC50

SMILES	IC50 ([1]; read-out: Ave. Secretion IC50) [µM]	IC50 [4, 5] [µM]	melting point [°C]	other results
CC(Oc1ccc(Cl)cc1Cl)C(=O)NCc1ccc(F)cc1 (centres unmarked) [MBX-1642]	9.8	–	–	–
CCC(Oc1ccc(Cl)cc1Cl)C(=O)NCc1ccc2c(c1)OCO2 (centres unmarked) [MBX-2081]	3.9	4.2	112	IC50 in the ExoS′βLA assay versus reference inhibitor MBX-1641, in words [1]: improvements; IC50 ([1]; read-out: Secretion IC50): 3.9 µM; SI, Selectivity Index (CC50/secretion IC50) ([1]; Table 3, HeLa CC50 / secretion IC50): >50; increase in potency as a T3SS inhibitor relative to MBX-1641 ([1]; α-ethyl analog versus MBX-1641): 3-4 fold; CC50 [2]: > 200 µM; CC50 at 3 days ([3]; Table 3, serum-free media, read-out: CC50): > 200 µM; IC50 ([4]; read-out: Translocation IC50): 4.2 µM
CCC(Oc1ccc(Cl)cc1Cl)C(=O)NCc1ccc(F)cc1 (centres unmarked) [MBX-2084]	4.3	7.4	108	CC50 at 3 days [3, 6]: 45 µM
CCC(Oc1ccc(Cl)cc1Cl)C(=O)NCc1ccc(OC)c(OC)c1 (centres unmarked) [MBX-2082]	16.3	> 100	117	–
CCC(Oc1ncc(Cl)cc1Cl)C(=O)NCc1ccc2sccc2c1 (racemic) [MBX-2359, N-(benzo[b]thiophen-5-ylmethyl)-2-(3,5-dichloropyridin-2-yloxy)butanamide]	1.5	–	–	inhibition of ExoS′-βLA secretion, in words [1]: potent inhibition of secretion
COc1ccc(CNC(=O)C(C)Oc2ccc(Cl)cc2Cl)cc1OC (centres unmarked) [MBX-1942]	–	–	127	–
CCC(Oc1ccc(Cl)cc1Cl)C(=O)N(C)Cc1ccc2c(c1)OCO2 (centres unmarked) [MBX-2159]	19.1	> 100	–	–
CCC(Oc1ccc(Cl)cc1Cl)C(=O)NCc1ccc(OC)cc1 (centres unmarked) [MBX-2083]	8.1	29.3	86	–
CC(C)C(Oc1ccc(Cl)cc1Cl)C(=O)NCc1ccc2c(c1)OCO2 (centres unmarked) [MBX-2146]	100	–	74	IC50 ([1]; read-out: Secretion IC50): 100 µM; performance in T3SS-mediated secretion relative to MBX-1641, in words [1]: significantly inferior performance
CCC(Oc1ncc(Cl)cc1Cl)C(=O)NCc1ccc(F)cc1 (centres unmarked) [MBX-2264]	2	30	–	IC50 in the ExoS′βLA assay versus reference inhibitor MBX-1641, in words [1]: improvements; CC50 at 3 days [3, 6]: 85 µM
COc1ccc(CNC(=O)C(Oc2ccc(Cl)cc2Cl)C(C)C)cc1 (centres unmarked) [MBX-2148]	210	–	77	–
COc1ccc(CNC(=O)C(Oc2ccc(Cl)cc2Cl)C(C)C)cc1OC (centres unmarked) [MBX-2147]	94.9	> 100	109	–
CCCC(Oc1ccc(Cl)cc1Cl)C(=O)NCc1ccc(OC)cc1 (centres unmarked) [MBX-2087]	–	–	103	Secretion, % @50 μM ([1]; @50 μM): 16% @50 μM
CCC(Oc1ncc(Cl)cc1Cl)C(=O)NCc1ccc2sccc2c1 (centres unmarked) [MBX-2401, N-(benzo[b]thiophen-5-ylmethyl)-2-(3,5-dichloropyridin-2-yloxy)butanamide]	–	–	–	inhibition of ExoS′-βLA secretion, in words [1]: potent inhibition of secretion
COc1ccc(CNC(=O)C(C)Oc2ccc(Cl)cc2Cl)cc1 (centres unmarked) [MBX-1940]	–	–	77	–
CCCC(Oc1ccc(Cl)cc1Cl)C(=O)NCc1ccc(OC)c(OC)c1 (centres unmarked) [MBX-2086]	–	–	82	Secretion, % @50 μM ([1]; @50 μM): 18% @50 μM
CCC(Oc1ncc(Cl)cc1Cl)C(=O)NCc1ccc2sccc2c1 (centres unmarked) [MBX-2402, N-(benzo[b]thiophen-5-ylmethyl)-2-(3,5-dichloropyridin-2-yloxy)butanamide]	–	–	–	inhibition of ExoS′-βLA secretion, in words [1]: little inhibitory effect
CCC(Oc1ncc(Cl)cc1Cl)C(=O)NCc1ccc2c(c1)OCO2 (racemic) [MBX-2263]	2	17	–	IC50 in the ExoS′βLA assay versus reference inhibitor MBX-1641, in words [1]: improvements; inhibition of ExoS′-βLA secretion, in words [1]: potent inhibition of secretion; CC50 at 3 days [3, 6]: > 100 µM
CCCC(Oc1ccc(Cl)cc1Cl)C(=O)NCc1ccc(F)cc1 (centres unmarked) [MBX-2088]	–	–	–	Secretion, % @50 μM ([1]; @50 μM): 9% @50 μM
CCCC(Oc1ccc(Cl)cc1Cl)C(=O)NCc1ccc2c(c1)OCO2 (centres unmarked) [MBX-2085]	–	–	92	Secretion, % @50 μM (printed in the Secretion IC50 column) ([1]; Table 3, @50 μM): 14% @50 μM; Secretion, % @50 μM ([1]; @50 μM): 14% @50 μM; performance in T3SS-mediated secretion relative to MBX-1641, in words [1]: significantly inferior performance
CC(C)C(Oc1ccc(Cl)cc1Cl)C(=O)NCc1ccc(F)cc1 (centres unmarked) [MBX-2149]	1580	–	106	–
CC(Oc1ccc(Cl)cc1Cl)C(=O)NCc1ccc2c(c1)OCO2 (racemic) [MBX-1641, N-(benzo[d][1,3]dioxol-5-ylmethyl)-2-(2,4-dichlorophenoxy)propanamide, reference compound]	7	–	–	–
